Data taken from patent US10071130B2, “Methods and compositions related to Hsp90 inhibitors and breast cancer” (The University of Chicago, priority 2013, dated 2018).

Tests used:
Assay type in all cases: cell-based
[1] = system: GR-α translational isoforms; test: Western blot of GR protein after Hsp90 inhibitor treatment of TNBC cell lines; settings: 50 nM, 8 hrs
Description: (§1) TNBC cell lines were pre-treated for 2 hours with dexamethasone (100 nM) followed by ganetespib (50 nM). Protein and transcript levels were analyzed using Western blot and qRT-PCR respectively.

AR protein = test: Western blot of AR protein after Hsp90 inhibitor treatment of TNBC cell lines; settings: 50 nM, 8 hrs
Description: as §1

AR target gene TMPRSS2 = test: qRT-PCR of AR target gene transcript
[2] = system: GR target genes in MDA-MB-231; test: Multiplex RT-PCR assay of GR target genes; settings: MDA-MB-231, Veh/Veh = 1
Description: The multiplex RT-PCR assay was performed to discover GR target genes that are affected by HSP90 inhibitor treatment of a triple-negative breast cancer cell line, MDA-MB-231.

[3] = system: GR target gene transcripts (SGK1 and MKP1/DUSP1); test: qRT-PCR of GR target gene transcripts in TNBC cell lines; settings: 100 nM dex 2 hours, then ganetespib 50 nM
Description: as §1
This induction was reduced following ganetespib (50 nM) treatment.

CCNC(=O)c1noc(-c2cc(C(C)C)c(O)cc2O)c1-c1ccc(CN2CCOCC2)cc1 [NVP-AUY922]
GR-α translational isoforms protein level [1]: depleted
AR protein level (AR protein): depleted

C[C@]1(O)CC[C@H]2[C@@H]3CCC4=CC(=O)CCC4=C3C=C[C@@]21C [R1881]
Expression of the AR target gene TMPRSS2 (AR target gene TMPRSS2; R1881 1 nM pre-treatment for 2 hours): induced

C[C@@H]1C[C@H]2[C@@H]3CCC4=CC(=O)C=C[C@]4(C)[C@@]3(F)[C@@H](O)C[C@]2(C)[C@@]1(O)C(=O)CO [dexamethasone]
ANGPTL4 transcript level [2]: 8.5
BCL6 transcript level [2]: 2.6
CALCR transcript level [2]: 4.3
CEBPB transcript level [2]: 4.1
DDIT4 transcript level [2]: 2.9
DUSP1 transcript level [2]: 3.7
EDN1 transcript level [2]: 2.3
ERRFI1 transcript level [2]: 3.4
FKBP5 transcript level [2]: 15.5
GLUL transcript level [2]: 1.5
IL6R transcript level [2]: 1.9
KLF9 transcript level [2]: 9.5
KLF13 transcript level [2]: 2.5
LOX transcript level [2]: 2.4
MT1E transcript level [2]: 2.7
MT2A transcript level [2]: 3.0
NFKBIA transcript level [2]: 2.0
PER1 transcript level [2]: 12.7
RHOB transcript level [2]: 5.6
SESN1 transcript level [2]: 1.4
SGK1 transcript level [2]: 2.9
SLC19A2 transcript level [2]: 2.0
SLC22A5 transcript level [2]: 1.3
TNFAIP3 transcript level [2]: 2.2
TSC22D3 transcript level [2]: 22.8
USP2 transcript level [2]: 3.1
XDH transcript level [2]: 1.3
ZFP36 transcript level [2]: 4.3

CC(C)c1cc(-c2n[nH]c(=O)n2-c2ccc3c(ccn3C)c2)c(O)cc1O [ganetespib]
GR-α translational isoforms protein level [1]: depleted
AR protein level (AR protein): depleted
Dexamethasone induction of GR target gene transcripts (SGK1 and MKP1/DUSP1) [3]: reduced
Androgen-induced expression of the AR target gene TMPRSS2 (AR target gene TMPRSS2; R1881 1 nM, concomitant ganetespib 50 nM): decreased
